Measured values from patent publication US9139532B2, “Pyrazolyl guanidine F1F0-atpase inhibitors and therapeutic uses thereof” (Lycera Corporation, priority 2010, dated 2015).
Read-outs that look alike come from different tables or passages of the source.

How the values were obtained:
[1] = target: T1, F1F0-ATPase (Bos taurus, UniProt P13621); experiment: Inhibition of F1F0-ATPase activity in synthesizing ATP; assay type: biochemical; conditions: inhibition of ATP synthesis by F1F0-ATPase; read-out: ATP Syn IC50
T1 construct: from tissue

[2] = test system: Ramos cells; experiment: Cytotoxicity in Ramos cells; assay type: cell-based; conditions: cytotoxicity in Ramos cells, read-out: Ramos Cell EC50

| Compound | IC50 [1] | EC50 [2] | EC50 ([2]; Homo sapiens) |
| --- | --- | --- | --- |
| O=C(/N=C(\Nc1cc(-c2ccc(Cl)cc2)n[nH]1)NC1CCCC1)c1ccc(F)cc1 [Compound A-253] | < 10 µM | < 10 µM |  |
| COc1ccc(C(=O)/N=C(/NCC(C)(C)C)Nc2cc(-c3ccc(F)cc3)[nH]n2)cc1 [Compound A-515] | < 10 µM | < 10 µM |  |
| O=C(/N=C(\Nc1cc(-c2ccc(F)cc2)[nH]n1)NC1CC1)c1ccc(F)cc1 [Compound A-193] | < 10 µM | > 10 µM |  |
| CCC(C)N/C(=N/C(=O)c1ccc(Cl)c(F)c1)Nc1cc(C)n[nH]1 (centres unmarked) [Compound A-178] | < 10 µM |  | < 10 µM |
| CC(C)N/C(=N/C(=O)c1ccc(Cl)cc1)Nc1cc(-c2ccc(F)cc2)n[nH]1 [Compound A-250] | < 10 µM | < 10 µM |  |
| O=C(/N=C(/Nc1cc(F)cc(Cl)c1)Nc1cc(-c2ccc(F)cc2)[nH]n1)c1ccc(C(F)(F)F)cc1 [Compound A-154] | < 10 µM | < 10 µM |  |
| O=C(/N=C(/NCc1ccc(Cl)cc1F)Nc1cc(C(F)(F)F)[nH]n1)c1ccc(C(F)(F)F)cc1 [Compound A-21] | < 10 µM |  | < 10 µM |
| CCOC[C@H](C)NC(=NC(=O)c1ccc(Cl)cc1)Nc1cc(-c2ccc(F)cc2)n[nH]1 [Compound A-265] | < 10 µM |  | < 10 µM |
| CC(C)(C)N/C(=N/C(=O)c1ccc(C(F)(F)F)cc1)Nc1cc(-c2ccccc2O)n[nH]1 [Compound A-563, (Z)—N-((tert-Butylamino)((3-(2-hydroxyphenyl)-1H-pyrazol-5-yl)amino)methylene)-4-(trifluoromethyl)benzamide] | < 10 µM |  | < 10 µM |
| CC(C)CCNC(=NC(=O)c1ccc(Cl)c(F)c1)Nc1cc(-c2cc(F)cc(F)c2)n[nH]1 [Compound A-349] | < 10 µM |  | < 10 µM |
| O=C(/N=C(\Nc1cc(C(F)(F)F)n[nH]1)NC1CCCOC1)c1ccc(Cl)cc1 (centres unmarked) [Compound A-110] | < 10 µM |  | < 10 µM |
| CCOCCCN/C(=N/C(=O)c1ccc(F)c(F)c1)Nc1[nH]nc(-c2ccc(Cl)cc2)c1F [Compound A-160] | < 10 µM | > 10 µM |  |
| CC(C)(C)NC(=NC(=O)c1ccc(Cl)c(F)c1)Nc1cc(-c2ccc(Cl)cc2)n[nH]1 [Compound A-469] | < 10 µM |  | < 10 µM |
| CC(C)(C)N/C(=N/C(=O)c1ccc(F)cc1)Nc1cc(-c2ccc(F)cc2)n[nH]1 [Compound A-459] | < 10 µM | < 10 µM |  |
| CC(C)(C)NC(=NC(=O)c1ccc(C(F)(F)F)cc1)Nc1cc(-c2cccc(Cl)c2)[nH]n1 [Compound A-439] | < 10 µM |  | < 10 µM |
| N#Cc1ccc(C(=O)/N=C(/NCc2ccc(F)cc2Cl)Nc2cc(C(F)(F)F)[nH]n2)cc1 [Compound A-81] | < 10 µM |  | < 10 µM |
| O=C(N=C(Nc1cc(F)cc(Cl)c1)Nc1cc(-c2cccc(Cl)c2)[nH]n1)c1ccc(C(F)(F)F)cc1 [Compound A-446] | < 10 µM |  | > 10 µM |
| CCOC[C@H](C)N/C(=N/C(=O)c1ccc(F)c(F)c1)Nc1cc(-c2cc(F)cc(Cl)c2)n[nH]1 [Compound A-247] | < 10 µM |  | < 10 µM |
| CC(C)(C)CN/C(=N/C(=O)c1ccc(C#N)cc1)Nc1cc(C(F)(F)F)[nH]n1 [Compound A-70] | < 10 µM |  | < 10 µM |
| CCC(C)(C)N/C(=N/C(=O)c1ccc(F)c(F)c1)Nc1cc(C(F)(F)F)n[nH]1 [Compound A-101] | < 10 µM |  | < 10 µM |
| CCC(C)N/C(=N/C(=O)c1cccc(OC)c1)Nc1cc(-c2ccc(Cl)cc2)n[nH]1 (centres unmarked) [Compound A-170] | < 10 µM |  | < 10 µM |
| O=C(/N=C(/NCc1ccc(F)cc1Cl)Nc1cc(-c2cccc(Cl)c2)n[nH]1)c1ccc(C(F)(F)F)cc1 [Compound A-444] | < 10 µM | > 10 µM |  |
| Cc1ccc(-c2cc(N/C(=N\C(=O)c3ccc(C(F)(F)F)cc3)NC3CCCC3)[nH]n2)cc1F [Compound A-326] | < 10 µM | > 10 µM |  |
| CC1(N/C(=N/C(=O)c2ccc(Cl)cc2)Nc2cc(C(C)(C)C)[nH]n2)CCC1 [Compound A-17] | < 10 µM |  | < 10 µM |
| CC(C)N/C(=N/C(=O)c1cccc(C#N)c1)Nc1cc(-c2cc(F)cc(F)c2)n[nH]1 [Compound A-312] | < 10 µM | < 10 µM |  |
| CC(C)N/C(=N/C(=O)c1ccc(F)c(F)c1)Nc1cc(C(F)F)[nH]n1 [Compound A-63] | < 10 µM |  | > 10 µM |

| Compound | IC50 [1] | EC50 [2] | EC50 ([2]; Homo sapiens) |
| --- | --- | --- | --- |
| CC(C)NC(=NC(=O)c1ccc(F)cc1)Nc1cc(-c2ccc(Cl)cc2)n[nH]1 [Compound A-255] | < 10 µM |  | < 10 µM |
| CC(C)CNC(=NC(=O)c1ccc(N2CCOCC2)nc1)Nc1cc(-c2ccc(F)cc2)n[nH]1 [Compound A-163] | < 10 µM |  | < 10 µM |
| O=C(/N=C(/NCC1CCCO1)Nc1cc(C(F)(F)F)[nH]n1)c1ccc(F)cc1 (centres unmarked) [Compound A-413] | < 10 µM | > 10 µM |  |
| COc1cccc(C(=O)N=C(Nc2cc(-c3ccc(F)cc3)n[nH]2)NC2CCCC2)c1 [Compound A-519] | < 10 µM |  | < 10 µM |
| CC(C)(C)NC(=NC(=O)c1ccc(F)cc1)Nc1cc(-c2ccc(Cl)cc2)n[nH]1 [Compound A-135] | < 10 µM |  | < 10 µM |
| COC(=O)c1cc(NC(=NC(=O)c2ccc(C(F)(F)F)cc2)NCc2ccc(F)cc2Cl)[nH]n1 [Compound A-338] | < 10 µM |  | < 10 µM |
| CC(C)C(C)N/C(=N/C(=O)c1cccc(C#N)c1)Nc1cc(-c2cc(F)cc(F)c2)n[nH]1 (centres unmarked) [Compound A-311] | < 10 µM | < 10 µM |  |
| CC(C)(C)N/C(=N/C(=O)c1cccc(F)c1)Nc1cc(-c2ccc(F)cc2)n[nH]1 [Compound A-456] | < 10 µM | < 10 µM |  |
| O=C(/N=C(\Nc1cc(-c2cc(F)cc(F)c2)n[nH]1)NC1CCC1)c1ccc(Cl)c(F)c1 [Compound A-347] | < 10 µM | < 10 µM |  |
| COc1ccc(-c2cc(N/C(=N\C(=O)c3ccc(C(F)(F)F)cc3)NCC(C)(C)C)[nH]n2)cc1F [Compound A-573] | < 10 µM | > 10 µM |  |
| COc1ccc(C(=O)/N=C(/NCC(C)C)Nc2cc(-c3ccc(F)cc3)n[nH]2)c(F)c1 [Compound A-372] | < 10 µM | > 10 µM |  |
| Cc1ccccc1CN/C(=N/C(=O)c1cccc(F)c1)Nc1cc(-c2ccc(F)cc2)[nH]n1 [Compound A-399] | < 10 µM | < 10 µM |  |
| O=C(/N=C(/NCc1ccc(F)cc1Cl)Nc1cc(-c2ccccc2)[nH]n1)c1ccc(Cl)c(F)c1 [Compound A-143] | < 10 µM | < 10 µM |  |
| CC(C)N/C(=N/C(=O)c1ccc(Cl)cc1)Nc1cc(C(F)F)[nH]n1 [Compound A-55] | < 10 µM |  | > 10 µM |
| CC(C)NC(=NC(=O)c1ccc(F)cc1)Nc1cc(-c2ccc(F)cc2)[nH]n1 [Compound A-512] | < 10 µM |  | < 10 µM |
| O=C(/N=C(\Nc1cc(-c2ccc(Cl)cc2)n[nH]1)NC1CCC1)c1ccc(C(F)(F)F)cc1 [Compound A-236] | < 10 µM | < 10 µM |  |
| COc1ccc(-c2cc(N/C(=N\C(=O)c3ccc(F)c(F)c3)Nc3cc(F)cc(Cl)c3)[nH]n2)cc1 [Compound A-480] | < 10 µM | > 10 µM |  |
| Cc1cc(C(=O)/N=C(/NCC(C)(C)C)Nc2cc(C(F)(F)F)[nH]n2)ccn1 [Compound A-85] | < 10 µM |  | > 10 µM |
| CC(C)(C)CN/C(=N/C(=O)c1ccc(C(F)(F)F)cc1)Nc1cc(C(F)(F)F)n[nH]1 [Compound A-51] | < 10 µM |  | < 10 µM |
| COC[C@H](C)N/C(=N/C(=O)c1ccc(Cl)c(F)c1)Nc1cc(-c2ccc(Cl)cc2)n[nH]1 [Compound A-380] | < 10 µM | < 10 µM |  |
| COc1ccccc1C(=O)/N=C(\Nc1cc(-c2ccc(F)cc2)[nH]n1)NC(C)(C)C [Compound A-157] | > 10 µM | > 10 µM |  |
| COc1ccc(-c2cc(N/C(=N\C(=O)c3ccc(C(F)(F)F)cc3)NC(C)(C)C)[nH]n2)cc1F [Compound A-575] | < 10 µM | < 10 µM |  |
| O=C(/N=C(\Nc1cc(-c2ccc(CO)cc2)[nH]n1)NC1CCCC1)c1ccc(F)c(F)c1 [Compound A-158] | > 10 µM | > 10 µM |  |
| CCC(C)CN/C(=N/C(=O)c1ccc(C(F)(F)F)cc1)Nc1cc(-c2ccc(C)c(F)c2)n[nH]1 (centres unmarked) [Compound A-330] | > 10 µM | > 10 µM |  |
| CC(C)(C)CNC(=NC(=O)c1ccc(F)c(F)c1)Nc1cc(-c2ccc(F)cc2)n[nH]1 [Compound A-522] | < 10 µM |  | < 10 µM |
| CC(C)CNC(=NC(=O)c1ccc(F)c(F)c1)Nc1cc(-c2cc(F)cc(F)c2)n[nH]1 [Compound A-364] | < 10 µM |  | < 10 µM |
